Assay [1] in a line: Inhibition of NF-kappaB in TNF-alpha-stimulated human cloned Jurkat 5.1 cells cotransfected with HIV1-LTR promoter preincubated for 30 mins before TNFalpha challenge after 6 hrs by luciferase reporter gene assay. Format: cell-based. (In general: Reporter assays use an easily measured gene product as a stand-in for the process of interest.)
The subject of another assay is HeLa. The experiment in a line: Cytotoxicity against human HeLa cells using propidium iodide staining by flow cytometry. Format: functional, cell-based. Background: A flow cytometer gives signals particle by particle.
Assay [2] has as its system A549. Kind of assay: Inhibition of NF-kappaB in TNF-alpha-stimulated human A549 cells cotransfected with KBF-luciferase gene preincubated for 30 mins before TNFalpha challenge after 6 hrs by luciferase reporter gene assay. Format: cell-based.
The test system of assay [3] is A549. The experiment in a line: Cytotoxicity against human A549 cells using propidium iodide staining by flow cytometry. Format: functional, cell-based.
A further assay has as its system Jurkat. Kind of assay: Cytotoxicity against human cloned Jurkat 5.1 cells using propidium iodide staining by flow cytometry. Format: functional, cell-based.

The source of these data is ChEMBL document CHEMBL1142612, “A meroterpenoid NF-kappaB inhibitor and drimane sesquiterpenoids from Asafetida” (J Nat Prod, 2006).

Active and inactive are the calls of the source. The rule behind the calls is not given here.

The IC50 is the midpoint of a concentration-inhibition curve. In assay [1], `CC(C)=CCC(O)/C(C)=C/C(O)C/C(C)=C/COc1ccc2ccc(=O)oc2c1` (configuration not stated) gave an IC50 of 37.5 µM.

With `CC(=O)OC(CC=C(C)C)/C(C)=C/C(O)C/C(C)=C/COc1ccc2ccc(=O)oc2c1` (configuration not stated), in assay [1], the IC50 came out at 15.1 µM. Besides, the result in the assay with HeLa, in the assay on A549 [3] and in the assay with Jurkat was inactive. Besides, the Activity result with A549 [2] is “Dose-dependent effect”.

In assay [1], `CC1=CC(=O)C2=C(C)CC3OC(=O)C(C)=C3C=C12` (configuration not stated) [TARAXACIN] displayed an IC50 of 57.6 µM.
